The subject of one test is Isolated Guinea Pig Atria. Briefly: In vitro myocardial inotropic activity in isolated guinea pig atria. The settings on record: @ 10^-5M; isolated guinea pig left atria electrically stimulated at 1.5 Hz, PSS 30°C. The test is classed as cell-based, guinea pigs. On the procedure:
Test for In Vitro Myocardial Inotropic Activity
in Isolated Guinea Pig Atria
Adult male guinea pigs weighing 300-400 g are reserpenized (2000 units i.p.) and, after ten minutes, are killed by cervical dislocation. The hearts are quickly removed and placed in a physiological salt solution (PSS) containing: 118 mM NaCI, 4.8 mM KCI, 2.4 mM CaCI, 1.2 mM MgS04, 1.0 mM NaH2P04, 11.1 m dextrose, and 27.2 mM NaHC03, maintained at pH 7.4 and 30°C. After removing all superficial blood, the hearts are perfused via the aorta to remove any blood from the coronary arteries. After five to ten minutes of perfusion, the left atria are dissected and mounted vertically in a 50 ml, water-jacketed bather containing PSS at 30°C and continuously oxygenated with 95% O2/5% CO2. The left atria are electrically stimulated at 1.5 Hz. The tissues are equilibrated for 30 minutes and washed with fresh PSS. The stimulation voltage is adjusted to 20% above the threshold and tension adjusted to Lmax (the muscle length at which tension development is maximal). The tissues are then equilibrated for an additional 30 minutes, after which the compounds to be examined are added to the tissue bather. […] The compounds are added in full or half-log concentration increments, usually over a concentration range of 1 x 10-^8 to 1 x 10-^4M. The muscles are generally allowed to assume a new steady-state contractile response before each subsequent addition of drug.
Using this procedure the inotropic activity of preferred compounds of the present invention is shown as found in the following Table 1. The reference calcium antagonist has also been tested for comparison.
For the compound `CCOC(=O)C1=C(C[S+]([O-])c2ccccc2)NC(C)=C(C#N)C1c1ccccc1C(F)(F)F` (single isomer, unassigned) [Example 2 Isomer B, Ethyl 5-cyano-1,4-dihydro-6-methyl-2-[(phenylsulfinyl)methyl]-4-[2-(trifluoromethyl)phenyl]-3-pyridinecarboxylate], the “% Change in Myocardial Contractility (PSCI)” value is on record as “+53%”.

Still in this test, the particulars now being: Cavia porcellus, @ 10^-5M; isolated guinea pig left atria electrically stimulated at 1.5 Hz, PSS 30°C; read-out: % Change in Myocardial Contractility (PSCI).
As for `CCOC(=O)C1=C(C[S+]([O-])c2ccccc2)NC(C)=C(C#N)C1c1ccccc1C(F)(F)F` (single isomer, unassigned) [Example 2 Isomer A, Ethyl 5-cyano-1,4-dihydro-6-methyl-2-[(phenylsulfinyl)methyl]-4-[2-(trifluoromethyl)phenyl]-3-pyridinecarboxylate], the activation at 10 µM turned out to be 33%.

Take `CCOC(=O)C1=C(C[S+]([O-])c2ccccc2)NC(C)=C(C#N)C1c1cccc([N+](=O)[O-])c1` (stereo not shown) [Example 2B]: the activation at 10 µM came out at 30%.

Turning to `CCOC(=O)C1=C(C[S+]([O-])c2ccccc2)NC(C)=C(C#N)C1c1ccccc1Cl` (stereo not shown) [Example 2D], the activation at 10 µM turned out to be 26%.

`CCOC(=O)C1=C(CS(=O)(=O)c2ccccc2)NC(C)=C(C#N)C1c1ccccc1C(F)(F)F` (stereo not shown) [Example 3A, Ethyl 5-cyano-1,4-dihydro-6-methyl-2-[(phenylsulfonyl)methyl]-4-[2-(trifluoromethyl)phenyl]-3-pyridinecarboxylate]: the activation at 10 µM turned out to be 26%.

Regarding `CCOC(=O)C1=C(CS(=O)(=O)c2ccccc2C)NC(C)=C(C#N)C1c1ccccc1C(F)(F)F` (stereo not shown) [Example 3C], the activation at 10 µM came to 33%.

In the case of `CCOC(=O)C1=C(CS(=O)(=O)c2ccccc2Cl)NC(C)=C(C#N)C1c1ccccc1C(F)(F)F` (stereo not shown) [Example 3D], the activation at 10 µM worked out at 33%.

The record behind these values is patent EP0206747B1, “1,4-Dihydropyridine derivatives useful in the treatment of cardiovascular disorders, and a process for producing the derivatives” (WARNER-LAMBERT COMPANY, priority 1985, dated 1986).
